# Tests used:
# [1] = system: human MCF7 breast cancer cells; experiment: Seahorse XF96 OCR and proton leak; assay type: cell-based; conditions: 24 h
# Protocol: (§1) Cellular oxygen consumption rates (OCRs) were assessed on a Seahorse XF96® bioenergetic analyzer using the Mito Stress® Kit following manufacturer's instructions (Agilent Technologies®). Briefly, 40,000 cells were plated and left to adhere for 24 h before treatment with the indicated doses DXR. Basal mitochondrial oxygen consumption (mtOCR) was identified as the portion of OCR sensitive to 0.5 μM of Complex I inhibitor rotenone together with 0.5 μM of Complex III inhibitor antimycin A. Proton leak corresponded to the portion of mtOCR resistant to 1 μM of ATP synthase inhibitor oligomycin. Maximal OCR was determined after mitochondrial potential disruption using 1 μM of ionophore carbonyl cyanide-4-(trifluoromethoxy)phenylhydrazone (FCCP). At the end of the experiment, cells were lysed in 30 μl of NaOH 0.5 M, and proteins were quantified with the Bradford method in order to normalize data by total protein content. Lactate and glucose concentrations were measured on deproteinized cell supernatants using an ISCUSflex CMA600™ analyzer (Aurora Borealis®), as previously described (Sonveaux et al.; PLoS. One 2012; 7, e33418).
# [2] = system: murine 4T1 breast cancer cells; experiment: Seahorse XF96 OCR and proton leak; assay type: cell-based, mouse; conditions: 24 h
# Protocol: as §1
# MCF7 cells [3] = experiment: Glucose uptake and lactate release, enzymatic; assay type: cell-based, human; conditions: 24 h
# Protocol: as §1
# 4T1 cells [4] = experiment: Glucose uptake and lactate release, enzymatic; assay type: cell-based, mouse; conditions: DXR 0.1 μg/mL, 24 h
# Protocol: as §1
# MCF7 cells [5] = experiment: Mitochondrial superoxide, mitoSOX FACS; assay type: cell-based, human; conditions: DXR 0.1 μg/mL, 24 h
# Protocol: (§2) Mitochondrial superoxide was measured in cells loaded with 3 μM of MitoSOX (Invitrogen®, catalogue #M36008) for 10 min at 37° C. Cells were gently detached with Accutase® (Thermo Fisher Scientific®, catalogue #A1110501), resuspended in PBS containing 10 mM of D-Glucose and 2% FBS, and immediately analyzed by flow cytometry using a FACSCantoII flow cytometer (BD Biosciences®).
# [6] = system: murine 4T1 breast cancer cell line; experiment: Mitochondrial superoxide, mitoSOX FACS; assay type: cell-based, mouse
# Protocol: as §2
# MCF7 cells [7] = experiment: Migration towards 0.5% serum, chemotaxis chamber; assay type: cell-based, human; conditions: low dose DXR, 0.1 μg/mL, 16 h pretreatment, 6 h recovery
# Protocol: (§3) Previous to migration and invasion assays, cells were pretreated with the indicated amounts of drugs for 16 h, and left to recover for 6 h in full culture medium. Migration assays were performed in a NeuroProbe® standard 48-well chemotaxis chamber according to manufacturer's instructions. Briefly, the bottom chamber was filled with DMEM containing 0.5% serum as a chemo-attractant. Fifty thousand cells were seeded in the upper chamber in the same medium but without serum ±MitoQ where indicated, and allowed to migrate overnight through an 8-μm pore-size polycarbonate membrane. A similar stimulation protocol was used for invasion assays, with the difference of using Matrigel-coated transwells (Corning®). With MCF7 cells, membranes were previously incubated for 30 min with a solution of Vitronectin 10 μg/ml (Sigma-Aldrich®, #SRP3186). Migrated/invaded cells were fixed and stained with 100 μl of a 0.23% crystal violet solution (Sigma-Aldrich®, #C0775) for 10 min before counting on a SpectraMax™ i3 spectrophotometer equipped with a MiniMax imaging cytometer, using the SoftMax Pro software. Data were normalized to vehicle-treated cells (control).
# 4T1 cells [8] = experiment: Migration towards 0.5% serum, chemotaxis chamber; assay type: cell-based, mouse; conditions: 16 h pretreatment, 6 h recovery
# Protocol: as §3
# 4T1 cells [9] = experiment: Invasion, Matrigel-coated transwells; assay type: cell-based, mouse; conditions: low dose DXR, 0.1 μg/mL, 16 h pretreatment, 6 h recovery
# Protocol: as §3
# [10] = system: human MDA-MB-231 breast cancer cell line; experiment: Mitochondrial superoxide, mitoSOX FACS; assay type: cell-based; conditions: increasing doses of cisplatin, 48 h
# Protocol: as §2
# 4T1 breast tumors = experiment: 4T1-bearing mice, doxorubicin ±MitoTEMPO; assay type: in vivo, mouse; conditions: doxorubicin 4 mg/kg i.v. weekly ×3 + MitoTEMPO 0.7 mg/kg i.p. daily; lungs day +21
# Protocol: On day −8, nine-week-old female Balb/cJRj mice (Janvier®) were injected with 200,000 viable 4T1 cells into the fourth mammary fat pad. When tumors reached an average diameter of 4 mm (day 0) and became palpable in all mice, an intravenous injection of doxorubicin (4 mg/kg) was administered once per week during 3 weeks (30) ±daily intraperitoneal injections of MitoTEMPO (0.7 mg/kg) or the same volume of vehicle (DMSO) until the end of the experiment. Tumor volume was determined three times a week using an electronic caliper and normalized to tumor volume at day 0. At the end-point (day +21), mice were sacrificed and their lungs were fixed in formalin. Tissues were stained with hematoxylin & eosin (H&E). Pictures of whole lung slides were acquired with a slide scanner (SCN400, Leica®) and analyzed with the Digital Image Hub software (DIH, Leica®). The area occupied by metastases was normalized to the lung area analyzed.
# MDA-MB-231 cells = experiment: RT-qPCR of biomarker signature after SKQ1; assay type: cell-based, human; conditions: 500 nM SKQ1, 48 h
# Protocol: (§4) Total mRNA from MDA-MB-231 or SkBr-3 human breast cancer cells treated ±500 nM SKQ1 for 48 h (Alexandr V. et al. Int. J. Cancer 2016; 139, 130-139) was extracted using the Tri reagent (Brunschwig Chemie®, cat #TR118). mRNAs were quantified by NanoDrop™1000 (Thermo Fisher Scientific®), and were reverse-transcribed in complementary DNAs using the high-capacity cDNA Reverse Transcription Kit (Thermo Fisher Scientific®, cat #4368814) according to manufacturer's protocol. Complementary DNAs (500 ng per sample) were amplified by RT-qPCR using the ROX SYBR Master Mix dTTP Blue (Eurogentec®) and primers listed in Table 5 and Table 6 on a CFX96 Real Time PCR system (BioRad®). Gene expression was normalized to […] gene expression.
# SkBr3 cells = experiment: RT-qPCR of biomarker signature after SKQ1; assay type: cell-based, human; conditions: 500 nM SKQ1, 48 h
# Protocol: as §4
# MDA-MB-436 cells = experiment: RT-qPCR of biomarker signature after SKQ1; assay type: cell-based, human; conditions: 500 nM SKQ1, 48 h
smiles,measurement,setting,value
COc1cccc2c1C(=O)c1c(O)c3c(c(O)c1C2=O)C[C@@](O)(C(=O)CO)C[C@@H]3O[C@H]1C[C@H](N)[C@H](O)[C@H](C)O1 [doxorubicin],mitochondrial oxygen consumption rate (mtOCR),"[1]; DXR low doses, 0.1 to 0.01 μg/mL",increased
same,leak of protons at the electron transport chain (ETC),[1]; increasing doses of DXR,dose dependent leak
same,mtOCR,[2]; Low-dose DXR,increased
same,leak of protons at the electron transport chain (ETC),[2]; increasing doses of DXR,dose dependent leak
same,glucose uptake,MCF7 cells [3]; DXR 0.1 μg/mL,significantly increasing
same,glycolysis,MCF7 cells [3]; DXR 0.1 to 0.01 μg/mL range,little effect
same,glycolysis,4T1 cells [4],little effect
same,lactate release,4T1 cells [4],significantly decreasing
same,production of mitochondrial superoxide at the ETC,MCF7 cells [5],increased production
same,production of mitochondrial superoxide at the ETC,"[6]; DXR 0.1 μg/mL, 24 h",increased production
same,cell migration,MCF7 cells [7],stimulated
same,cell migration,"4T1 cells [8]; low dose DXR, 0.1 μg/mL",stimulated
same,cell invasion,4T1 cells [9],stimulated
N.N.[Cl][Pt][Cl] [cisplatin],mitochondrial superoxide production at the ETC,"[6]; increasing doses of cisplatin, 48 h",induce
same,mitochondrial superoxide production at the ETC,[10],induce
same,cancer cell migration,4T1 cells [8]; cisplatin 77.76 μM,induced
CC1(C)CC(NC(=O)C[P+](c2ccccc2)(c2ccccc2)c2ccccc2)CC(C)(C)N1[O] [MitoTEMPO],cancer metastasis in breast cancer-bearing animals treated with DXR,4T1 breast tumors,inhibit
"CC1=C(C)C(=O)C(CCCCCCCCCC[P+](c2ccccc2)(c2ccccc2)c2ccccc2)=CC1=O.[Br-] [SKQ1, [10-(4,5-dimethyl-3,6-dioxo-1,4-cyclohexadien-1-yl)decyl]triphenyl-phosphonium, monobromide]",amplitude of the change in NUPR1 expression,MDA-MB-231 cells,+676%
same,amplitude of the change in SERPIN1 expression,MDA-MB-231 cells,+63%
same,amplitude of the change in SNAI1 expression,MDA-MB-231 cells,−21%
same,amplitude of the change in SOX2 expression,MDA-MB-231 cells,−52%
same,genes of the complete biomarker signature with the expected gene expression changes,MDA-MB-231 cells,12 of the 15
same,PHGDH-1 expression increased by,MDA-MB-231 cells; P<0.005,5.36 fold
same,PSAT1 expression increased by,MDA-MB-231 cells; P<0.005,3.43 fold
same,SLC7A11 expression increased by,MDA-MB-231 cells; P<0.005,2.35 fold
same,TXNRD1 expression increased by,MDA-MB-231 cells; P<0.005,1.69 fold
same,gene expression of ASNS,MDA-MB-231 cells; P<0.005,increased
same,gene expression of G6PD,MDA-MB-231 cells; P<0.005,increased
same,gene expression of NUPR1,MDA-MB-231 cells; P<0.005,increased
same,gene expression of PCK2,MDA-MB-231 cells; P<0.005,increased
same,gene expression of SLC6A9,MDA-MB-231 cells; P<0.005,increased
same,gene expression of SOX2,MDA-MB-231 cells; P<0.005,decreased
same,SERPINE1 expression increased by,MDA-MB-231 cells; P<0.01,1.63 fold
same,expected gene expression changes that were statistically significant,MDA-MB-231 cells; among 12 genes,11
same,gene expression of SNAI1,"MDA-MB-231 cells; not significant, P=0.4575",decreased
same,amplitude of the change in NUPR1 expression,SkBr3 cells,+25%
same,amplitude of the change in SLC7A11 expression,SkBr3 cells,+565%
same,amplitude of the change in SOX2 expression,SkBr3 cells,−95%
same,amplitude of the change in VIM expression,SkBr3 cells,−19%
same,genes of the complete biomarker signature with the expected gene expression changes,SkBr3 cells,13 of the 15
same,SLC7A11 expression increased by,SkBr3 cells; P<0.005,6.65 fold
same,TXNRD1 expression increased by,SkBr3 cells; P<0.005,3.20 fold
same,gene expression of PCK2,SkBr3 cells; P<0.005,increased
same,gene expression of SOX2,SkBr3 cells; P<0.005,decreased
same,PHGDH-1 expression increased by,SkBr3 cells; P<0.01,2.26 fold
same,PSAT1 expression increased by,SkBr3 cells; P<0.01,2.26 fold
same,gene expression of ASNS,SkBr3 cells; P<0.01,increased
same,gene expression of ZEB1,SkBr3 cells; P<0.05,decreased
same,SERPINE1 expression increased by,SkBr3 cells; P=0.0732,1.45 fold
same,expected gene expression changes that were statistically significant,SkBr3 cells; among 13 genes,8
same,gene expression of NANOG,"SkBr3 cells; not significant, P=0.1539",decreased
same,gene expression of NUPR1,"SkBr3 cells; not significant, P=0.2615",increased
same,gene expression of VIM,"SkBr3 cells; not significant, P=0.3557",decreased
same,gene expression of G6PD,SkBr3 cells; only 2 replicates,increased
same,amplitude of the change in ASNS expression,MDA-MB-436 cells,+526%
same,amplitude of the change in G6PD expression,MDA-MB-436 cells,+22%
same,amplitude of the change in SNAI1 expression,MDA-MB-436 cells,−12%
same,amplitude of the change in SOX2 expression,MDA-MB-436 cells,−67%
same,genes of the complete biomarker signature with the expected gene expression changes,MDA-MB-436 cells,14 of the 15
same,PHGDH-1 expression increased by,MDA-MB-436 cells; P<0.005,2.51 fold
same,PSAT1 expression increased by,MDA-MB-436 cells; P<0.005,2.53 fold
same,TXNRD1 expression increased by,MDA-MB-436 cells; P<0.005,2.11 fold
same,gene expression of ASNS,MDA-MB-436 cells; P<0.005,increased
same,gene expression of NUPR1,MDA-MB-436 cells; P<0.005,increased
same,gene expression of PCK2,MDA-MB-436 cells; P<0.005,increased
same,gene expression of SLC6A9,MDA-MB-436 cells; P<0.005,increased
same,SERPINE1 expression increased by,MDA-MB-436 cells; P<0.01,1.46 fold
same,SLC7A11 expression increased by,MDA-MB-436 cells; P<0.01,3.60 fold
same,gene expression of SOX2,MDA-MB-436 cells; P<0.05,decreased
same,expected gene expression changes that were statistically significant,MDA-MB-436 cells; among 14 genes,10
same,gene expression of G6PD,"MDA-MB-436 cells; not significant, P=0.0974",increased
same,gene expression of NANOG,"MDA-MB-436 cells; not significant, P=0.5663",decreased
same,gene expression of SNAI1,"MDA-MB-436 cells; not significant, P=0.6013",decreased
same,gene expression of ZEB1,"MDA-MB-436 cells; not significant, P=0.6890",decreased
